These results are taken from ChEMBL document CHEMBL3596129, “Osthol and curcumin as inhibitors of human Pgp and multidrug efflux pumps of Staphylococcus aureus: reversing the resistance against frontline antibacterial drugs” (Medchemcomm, 2014).

Each structure is given as a SMILES string.

The target of series [1] is T1, Fluoroquinolone resistance protein (Staphylococcus aureus) (UniProt A0A0C5K5S3).
T1 sequence (whole entry): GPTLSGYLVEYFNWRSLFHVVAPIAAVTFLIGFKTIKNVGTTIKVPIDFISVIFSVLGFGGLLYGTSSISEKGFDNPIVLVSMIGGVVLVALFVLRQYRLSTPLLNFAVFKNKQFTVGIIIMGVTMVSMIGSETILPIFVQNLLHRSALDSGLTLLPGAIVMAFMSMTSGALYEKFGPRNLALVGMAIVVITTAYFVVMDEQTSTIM
As to the kind of experiment: Inhibition of MdeA overexpressed in Staphylococcus aureus Mupr-1 assessed as decrease in mupirocin MIC at 25 uM after 24 hrs by broth checkerboard method relative to control.

The next series concerns the target CYP2D6 (Homo sapiens, UniProt P10635). As to the kind of experiment: Inhibition of human CYP2D6 at 10 uM preincubated for 10 mins with cofactor followed by mixture of enzyme-substrate addition by fluorescence assay relative to control. The class given is ADME.
A further series concerns the target CYP3A4 (Homo sapiens, UniProt P08684). In words: Inhibition of human CYP3A4 at 10 uM preincubated for 10 mins with cofactor followed by mixture of enzyme-substrate addition by fluorescence assay relative to control. The class given is ADME.
For series [2], the target named is T2, ATP-dependent translocase ABCB1 (Homo sapiens, UniProt P08183). As to the kind of experiment: Inhibition of P-gp in human LS180 cells at 50 uM after 90 mins by rhodamine123 cell exclusion method. The class given is cell-based. The settings on record: ls180, 1.5 h.
Series [3] has as its system P-gp. In words: Substrate activity at P-gp in human Caco2 cells assessed as apparent permeability across apical to basolateral side at 10 uM after 90 mins by HPLC with mass spectrometric method. The class given is ADME, cell-based. Particulars: Caco-2; call rule not given here. In general terms: Passage across Caco-2 layers is used to estimate intestinal permeability.
The test system of series [4] is Staphylococcus aureus. As to the kind of experiment: Inhibition of TetK overexpressed in Staphylococcus aureus K2192 assessed as tetracycline MIC at 25 uM after 24 hrs by broth checkerboard method (reference value: 32 ug/ml).
Series [5] addresses T3, Quinolone resistance protein NorA (Staphylococcus aureus) (UniProt P0A0J7).
T3 sequence (whole entry): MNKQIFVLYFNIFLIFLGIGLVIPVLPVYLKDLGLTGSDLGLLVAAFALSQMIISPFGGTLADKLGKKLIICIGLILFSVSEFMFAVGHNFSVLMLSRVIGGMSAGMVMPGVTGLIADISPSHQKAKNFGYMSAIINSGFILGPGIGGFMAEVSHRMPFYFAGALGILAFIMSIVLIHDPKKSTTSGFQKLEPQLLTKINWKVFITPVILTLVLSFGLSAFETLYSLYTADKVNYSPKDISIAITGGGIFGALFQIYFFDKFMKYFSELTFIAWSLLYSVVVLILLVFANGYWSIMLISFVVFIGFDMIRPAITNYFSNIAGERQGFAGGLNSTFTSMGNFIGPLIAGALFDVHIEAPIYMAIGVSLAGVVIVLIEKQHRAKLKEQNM
In words: Inhibition of NorA overexpressed in Staphylococcus aureus SA1199B assessed as decrease in ciprofloxacin MIC at 25 uM after 24 hrs by broth checkerboard method relative to control.

Series [6] deals with Staphylococcus aureus. As to the kind of experiment: Inhibition of MsrA overexpressed in Staphylococcus aureus K2191 assessed as erythromycin MIC at 25 uM after 24 hrs by broth checkerboard method (reference value: 64 ug/ml).
Series [7] relates to Staphylococcus aureus. In words: Inhibition of TetK overexpressed in Staphylococcus aureus K2192 assessed as decrease in tetracycline MIC at 25 uM after 24 hrs by broth checkerboard method relative to control.
The target in series [8] is T3, Quinolone resistance protein NorA (Staphylococcus aureus). In words: Inhibition of NorA overexpressed in Staphylococcus aureus SA1199B assessed as ciprofloxacin MIC at 25 uM after 24 hrs by broth checkerboard method (reference value: 8 ug/ml).
Series [9] has as its system P-gp. As to the kind of experiment: Substrate activity at P-gp in human Caco2 cells assessed as apparent permeability across basolateral to apical side at 10 uM after 90 mins by HPLC with mass spectrometric method. The settings on record: Caco-2. Type of series: ADME, cell-based.
In series [10] the test system is P-gp. In words: Substrate activity at P-gp in human Caco2 cells assessed as efflux ratio of apparent permeability across basolateral to apical side over apical to basolateral side at 10 uM after 90 mins by HPLC with mass spectrometric method. Type of series: ADME, cell-based. Particulars: Caco-2.
In another series the target is CYP2C19 (Homo sapiens, UniProt P33261). As to the kind of experiment: Inhibition of human CYP2C19 at 10 uM preincubated for 10 mins with cofactor followed by mixture of enzyme-substrate addition by fluorescence assay relative to control. The class given is ADME.
Series [11] relates to Staphylococcus aureus. As to the kind of experiment: Inhibition of MsrA overexpressed in Staphylococcus aureus K2191 assessed as decrease in erythromycin MIC at 25 uM after 24 hrs by broth checkerboard method relative to control.
The target of series [12] is T1, Fluoroquinolone resistance protein (Staphylococcus aureus). In words: Inhibition of MdeA overexpressed in Staphylococcus aureus Mupr-1 assessed as mupirocin MIC at 25 uM after 24 hrs by broth checkerboard method (reference value: 256 ug/ml).
Another series concerns the target CYP2C9 (Homo sapiens, UniProt P11712). In words: Inhibition of human CYP2C9 at 10 uM preincubated for 10 mins with cofactor followed by mixture of enzyme-substrate addition by fluorescence assay relative to control. Type of series: ADME.
Series [13] concerns the target T2, ATP-dependent translocase ABCB1. As to the kind of experiment: Inhibition of P-gp in human LS180 cells after 90 mins by rhodamine123 cell exclusion method. Type of series: cell-based.
Series [14] relates to Staphylococcus aureus. As to the kind of experiment: Inhibition of TetK overexpressed in Staphylococcus aureus K2192 assessed as decrease in tetracycline MIC at 3.12 uM after 24 hrs by broth checkerboard method relative to control.
Series [15] has as its target T1, Fluoroquinolone resistance protein (Staphylococcus aureus). As to the kind of experiment: Inhibition of MdeA overexpressed in Staphylococcus aureus Mupr-1 assessed as decrease in mupirocin MIC at 3.12 uM after 24 hrs by broth checkerboard method relative to control.
Series [16] concerns the target T3, Quinolone resistance protein NorA (Staphylococcus aureus). In words: Inhibition of NorA overexpressed in Staphylococcus aureus SA1199B assessed as decrease in ciprofloxacin MIC at 3.12 uM after 24 hrs by broth checkerboard method relative to control.
For series [17], the system named is Staphylococcus aureus. As to the kind of experiment: Inhibition of MsrA overexpressed in Staphylococcus aureus K2191 assessed as erythromycin MIC at 3.12 uM after 24 hrs by broth checkerboard method (reference value: 64 ug/ml).
Series [18] deals with T1, Fluoroquinolone resistance protein (Staphylococcus aureus). As to the kind of experiment: Inhibition of MdeA overexpressed in Staphylococcus aureus Mupr-1 assessed as mupirocin MIC at 3.12 uM after 24 hrs by broth checkerboard method (reference value: 256 ug/ml).
Series [19] has as its system Staphylococcus aureus. As to the kind of experiment: Inhibition of TetK overexpressed in Staphylococcus aureus K2192 assessed as tetracycline MIC at 3.12 uM after 24 hrs by broth checkerboard method (reference value: 32 ug/ml).
For series [20], the target named is T3, Quinolone resistance protein NorA (Staphylococcus aureus). In words: Inhibition of NorA overexpressed in Staphylococcus aureus SA1199B assessed as ciprofloxacin MIC at 3.12 uM after 24 hrs by broth checkerboard method (reference value: 8 ug/ml).
The subject of series [21] is Staphylococcus aureus. As to the kind of experiment: Inhibition of MsrA overexpressed in Staphylococcus aureus K2191 assessed as decrease in erythromycin MIC at 3.12 uM after 24 hrs by broth checkerboard method relative to control.
The target in series [22] is T3, Quinolone resistance protein NorA (Staphylococcus aureus). As to the kind of experiment: Inhibition of NorA overexpressed in Staphylococcus aureus SA1199B assessed as decrease in ciprofloxacin MIC at 12.5 uM after 24 hrs by broth checkerboard method relative to control.
For series [23] the target is unchanged. In words: Inhibition of NorA overexpressed in Staphylococcus aureus SA1199B assessed as ciprofloxacin MIC at 12.5 uM after 24 hrs by broth checkerboard method (reference value: 8 ug/ml).
For series [24], the system named is Staphylococcus aureus. As to the kind of experiment: Inhibition of TetK overexpressed in Staphylococcus aureus K2192 assessed as decrease in tetracycline MIC at 12.5 uM after 24 hrs by broth checkerboard method relative to control.
Series [25] deals with Staphylococcus aureus. As to the kind of experiment: Inhibition of MsrA overexpressed in Staphylococcus aureus K2191 assessed as decrease in erythromycin MIC at 12.5 uM after 24 hrs by broth checkerboard method relative to control.
For series [26], the system named is Staphylococcus aureus. In words: Inhibition of TetK overexpressed in Staphylococcus aureus K2192 assessed as tetracycline MIC at 12.5 uM after 24 hrs by broth checkerboard method (reference value: 32 ug/ml).
Series [27] relates to Staphylococcus aureus. As to the kind of experiment: Inhibition of MsrA overexpressed in Staphylococcus aureus K2191 assessed as erythromycin MIC at 12.5 uM after 24 hrs by broth checkerboard method (reference value: 64 ug/ml).
The target of series [28] is T1, Fluoroquinolone resistance protein (Staphylococcus aureus). In words: Inhibition of MdeA overexpressed in Staphylococcus aureus Mupr-1 assessed as decrease in mupirocin MIC at 12.5 uM after 24 hrs by broth checkerboard method relative to control.
Series [29] has the same target. As to the kind of experiment: Inhibition of MdeA overexpressed in Staphylococcus aureus Mupr-1 assessed as mupirocin MIC at 12.5 uM after 24 hrs by broth checkerboard method (reference value: 256 ug/ml).

Chain of CYP2C19 (P33261 whole entry): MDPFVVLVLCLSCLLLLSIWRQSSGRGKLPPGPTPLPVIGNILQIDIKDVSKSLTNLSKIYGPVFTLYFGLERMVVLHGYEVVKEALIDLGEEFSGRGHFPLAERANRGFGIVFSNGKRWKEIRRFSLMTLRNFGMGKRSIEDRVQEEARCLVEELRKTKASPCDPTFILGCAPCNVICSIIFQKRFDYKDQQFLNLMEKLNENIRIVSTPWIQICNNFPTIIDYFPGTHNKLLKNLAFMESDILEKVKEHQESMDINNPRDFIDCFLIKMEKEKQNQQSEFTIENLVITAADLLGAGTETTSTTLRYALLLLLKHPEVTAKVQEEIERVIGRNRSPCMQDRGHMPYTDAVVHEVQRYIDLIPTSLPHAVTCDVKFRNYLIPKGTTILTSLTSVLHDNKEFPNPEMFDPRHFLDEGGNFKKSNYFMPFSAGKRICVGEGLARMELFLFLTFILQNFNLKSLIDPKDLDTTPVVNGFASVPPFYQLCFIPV
Chain of CYP2D6 (P10635 whole entry): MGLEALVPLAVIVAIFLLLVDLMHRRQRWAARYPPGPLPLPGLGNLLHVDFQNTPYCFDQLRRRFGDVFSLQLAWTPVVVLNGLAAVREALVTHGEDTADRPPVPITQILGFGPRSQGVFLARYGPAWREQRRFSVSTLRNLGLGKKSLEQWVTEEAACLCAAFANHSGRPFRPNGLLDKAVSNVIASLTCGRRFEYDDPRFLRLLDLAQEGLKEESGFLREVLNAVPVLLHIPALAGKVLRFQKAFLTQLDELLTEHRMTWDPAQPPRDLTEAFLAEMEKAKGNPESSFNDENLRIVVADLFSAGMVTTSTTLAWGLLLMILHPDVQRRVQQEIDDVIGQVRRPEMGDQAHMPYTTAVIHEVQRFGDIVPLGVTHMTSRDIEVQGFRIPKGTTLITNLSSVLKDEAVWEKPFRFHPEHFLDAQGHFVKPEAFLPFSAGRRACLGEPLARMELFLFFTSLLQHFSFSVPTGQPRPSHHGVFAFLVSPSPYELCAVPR
Chain of CYP3A4 (P08684 whole entry): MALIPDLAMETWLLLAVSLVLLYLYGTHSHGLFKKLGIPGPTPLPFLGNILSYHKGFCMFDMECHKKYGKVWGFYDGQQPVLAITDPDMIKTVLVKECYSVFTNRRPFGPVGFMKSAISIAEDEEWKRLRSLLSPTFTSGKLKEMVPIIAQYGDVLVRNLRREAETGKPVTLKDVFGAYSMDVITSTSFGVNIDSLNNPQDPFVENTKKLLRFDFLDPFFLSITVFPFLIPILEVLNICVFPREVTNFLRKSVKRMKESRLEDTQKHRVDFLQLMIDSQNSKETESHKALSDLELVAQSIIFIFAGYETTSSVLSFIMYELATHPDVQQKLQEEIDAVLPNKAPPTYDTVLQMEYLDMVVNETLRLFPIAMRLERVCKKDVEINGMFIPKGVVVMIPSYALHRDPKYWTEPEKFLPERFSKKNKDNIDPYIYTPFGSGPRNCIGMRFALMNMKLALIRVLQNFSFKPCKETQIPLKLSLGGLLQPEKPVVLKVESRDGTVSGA
Chain of CYP2C9 (P11712 whole entry): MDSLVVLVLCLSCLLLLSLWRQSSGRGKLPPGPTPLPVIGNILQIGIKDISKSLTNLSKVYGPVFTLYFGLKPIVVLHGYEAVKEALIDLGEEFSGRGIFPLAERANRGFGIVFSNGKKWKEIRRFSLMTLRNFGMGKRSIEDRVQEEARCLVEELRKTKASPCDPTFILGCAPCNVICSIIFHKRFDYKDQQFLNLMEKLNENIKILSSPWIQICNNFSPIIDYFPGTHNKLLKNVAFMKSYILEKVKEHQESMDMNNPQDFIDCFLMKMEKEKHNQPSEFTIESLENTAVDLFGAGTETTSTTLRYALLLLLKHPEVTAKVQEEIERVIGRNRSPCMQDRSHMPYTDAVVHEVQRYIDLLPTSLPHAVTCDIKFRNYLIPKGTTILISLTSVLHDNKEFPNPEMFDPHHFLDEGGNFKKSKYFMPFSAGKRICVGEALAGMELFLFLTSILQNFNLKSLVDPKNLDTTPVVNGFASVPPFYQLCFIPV

Consider `COc1ccc2ccc(=O)oc2c1CC=C(C)C` [OSTHOLE], for which the fold change (FC) in series [1] worked out at 0; in [5] it was 4; in the series with Staphylococcus aureus [7], 2; with Staphylococcus aureus [11], 0. Also, the inhibition at 10 µM at CYP2D6 is 60.5%; on CYP3A4 it was 27.3%; at CYP2C19, 56.5%; on CYP2C9, 39.8%. Further, in [2], the “inhibition (INH)” value is “Not Active”. Further, in the series on P-gp [3], the Papp A→B at 1.5 h, 10 µM was 26 ×10⁻⁶ cm/s. The MIC was 16 µg/mL in the series on Staphylococcus aureus [4], 64 µg/mL in the series with Staphylococcus aureus [6], 2 µg/mL in series [8] and 256 µg/mL in series [12]. The Papp B→A at 1.5 h, 10 µM in the series on P-gp [9] is 35 ×10⁻⁶ cm/s. For the same molecule, the efflux ratio at 1.5 h, 10 µM with P-gp [10] came to 1.3. Besides, the IC50 in series [13] was 34 µM.
On to `CC(=O)c1c(O)c(C)c(O)c(Cc2c3c(c(O)c4c2OC(c2ccccc2)CC4=O)C=CC(C)(C)O3)c1O` (stereo unspecified), for which the fold change (FC) came to 0 in the series on Staphylococcus aureus [14], 0 in series [15], 4 in [16] and 0 in the series on Staphylococcus aureus [21]. Further, the “inhibition (INH)” value in series [2] is “Not Active”. Moreover, the MIC in the series on Staphylococcus aureus [17] came to 64 µg/mL; in series [18] it was 256 µg/mL; with Staphylococcus aureus [19], 32 µg/mL; in [20] it was 2 µg/mL.
As to `COc1ccc(-c2cc(=O)c3c(OC)c(OC)c(OC)c(OC)c3o2)cc1` [TANGERETIN], the fold change (FC) worked out at 2 in series [22]; 0 in the series on Staphylococcus aureus [24]; 2 in the series on Staphylococcus aureus [25]; 2 in [5]; 2 in [28]. Besides, the MIC came to 4 µg/mL in series [23], 32 µg/mL in the series on Staphylococcus aureus [26], 32 µg/mL with Staphylococcus aureus [27] and 128 µg/mL in series [29]. In addition, the “inhibition (INH)” value in series [2] is listed as “Not Active”.

One may read the inhibition as the share of the control response that was lost under treatment. A word on the Papp A→B: it is the apparent permeability from the apical to the basolateral side of a cell layer. For orientation: Papp B→A means how fast a substance crosses the layer from the basolateral side. One may read the efflux ratio as the permeability from basolateral to apical divided by that in the opposite direction, in the common usage. By IC50 is commonly meant the concentration at which inhibition is half-maximal. High values mean weaker potency in that assay, low ones greater potency in that assay.
